Experimental data: patent publication US20030225044A1, “Method to increase serum levels of vitamins in animals including humans” (priority 2002, published 2003)

Experiments:
Type in all cases: in vivo, beef steers
[1] = Serum 25-Hydroxy-Vitamin D3 after intravenous infusion (Example I); conditions: 125 mg intravenous infusion
Method: Applicants infused three (3) beef steers of mixed breeding with 125 milligrams of 25-Hydroxy-Vitamin D3 intravenously. Blood was drawn just prior to the intravenous infusion and at 6 hours and 24 hours post administration.
Point 120, representing 116 nanomoles per liter, comprises the serum level of 25-Hydroxy-Vitamin D3 just prior to the intravenous infusion. At 6 hours post administration, the serum blood level was measured as 2432 nanomoles per liter, i.e. point 130. […] At 24 hours post administration, the serum blood level was measured as 1011 nanomoles per liter, i.e. point 140.

[2] = Dose/response of nasal administration, serum 25-Hydroxy-Vitamin D3 (Example III); conditions: intranasal
Method: To study the dose/response efficacy of nasal administration of Vitamin D, twelve (12) beef steers of mixed breeding were used to evaluate four treatments (3 replications). These four treatments were:
(§1) Treatments were applied and cattle were bled via jugular venipuncture at 0 and 6 hours post-dosing.

[3] = Buccal versus nasal administration, serum 25-Hydroxy-Vitamin D3 (Example IV); conditions: for serum level change for each milligram administered: after 6 hours (FIG. 7)
Method: To study the dose/response efficacy of buccal administration of one or more vitamins, beef steers of mixed breeding were used to evaluate three treatments (3 replications). These three treatments were:
as §1

[4] = Serum 25-Hydroxy-Vitamin D3 after intranasal or transdermal administration (Example II); conditions: for fold increase in the 25-Hydroxy-Vitamin D3 serum level / percent increase in the 25-Hydroxy-Vitamin D3 serum level: nasal delivery
Method: These five treatments were:
Treatments were applied and cattle were bled via jugular venipuncture at 0, 6, and 24 hours post-dosing.

[5] = Treatment 2: 125 mg 25-OH D3, ethanol, intranasal, 6 Hours
[6] = Treatment 2: 125 mg 25-OH D3, ethanol, intranasal, 24 Hours
[7] = Treatment 2: 125 mg 25-OH D3, ethanol, intranasal, time 0
[8] = Treatment 2: 125 mg in ethanol, 6 hours post administration (FIG. 2, point 212)
[9] = Treatment 2: 125 mg in ethanol, 24 hours post administration (FIG. 2, point 214)
[10] = Treatment 3: 125 mg 25-OH D3, powder, intranasal, 6 Hours
[11] = Treatment 3: 125 mg 25-OH D3, powder, intranasal, 24 Hours
[12] = Treatment 3: 125 mg 25-OH D3, powder, intranasal, time 0
[13] = Treatment 4: 125 mg 25-OH D3, corn oil, intranasal, 6 Hours
[14] = Treatment 4: 125 mg 25-OH D3, corn oil, intranasal, 24 Hours
[15] = Treatment 4: 125 mg 25-OH D3, corn oil, intranasal, time 0
[16] = Treatment 5: 125 mg 25-OH D3, transdermal (inner ear), 6 Hours
[17] = Treatment 5: 125 mg 25-OH D3, transdermal (inner ear), 24 Hours
[18] = Treatment 5: 125 mg 25-OH D3, transdermal (inner ear), time 0

C=C1CC[C@H](O)C/C1=C/C=C1\CCC[C@]2(C)[C@@H]([C@H](C)CCCC(C)(C)O)CC[C@@H]12 [25-Hydroxy-Vitamin D3]
course of serum level of 25-Hydroxy-Vitamin D3 ([1]; 0 to 6 hours (FIG. 1, curve portion 112)): increases from 0 hours to 6 hours post administration | course of serum level of 25-Hydroxy-Vitamin D3 ([1]; 6 to 24 hours (FIG. 1, curve portion 114)): decreases from 6 hours to 24 hours post administration | serum level of 25-Hydroxy-Vitamin D3 ([1]; 6 hours post administration): 2432 nanomoles per liter | serum level of 25-Hydroxy-Vitamin D3 ([1]; 24 hours post administration): 1011 nanomoles per liter | serum level of 25-Hydroxy-Vitamin D3 ([1]; just prior to infusion): 116 nanomoles per liter | Average Serum Levels-25-Hydroxy-Vitamin D3 ([2]; Treatment 2: 30 mg 25-OH D3 in 1 ml ethanol, 6 Hours): 149.67 nmoI/L | Average Serum Levels-25-Hydroxy-Vitamin D3 ([2]; Treatment 2: 30 mg 25-OH D3 in 1 ml ethanol, time 0): 121.33 nmoI/L | change in serum level per milligram administered, compared among dosages ([2]; Treatment 2: 30 mg in 1 ml ethanol, 6 hours, versus 60, 90, 120 mg (FIG. 5)): maximum change in serum level per milligram administered | Average Serum Levels-25-Hydroxy-Vitamin D3 ([2]; Treatment 3: 60 mg 25-OH D3 in 1 ml ethanol, 6 Hours): 184.33 nmoI/L | Average Serum Levels-25-Hydroxy-Vitamin D3 ([2]; Treatment 3: 60 mg 25-OH D3 in 1 ml ethanol, time 0): 144.67 nmoI/L | Average Serum Levels-25-Hydroxy-Vitamin D3 ([2]; Treatment 4: 90 mg 25-OH D3 in 1 ml ethanol, 6 Hours): 180.67 nmoI/L | Average Serum Levels-25-Hydroxy-Vitamin D3 ([2]; Treatment 4: 90 mg 25-OH D3 in 1 ml ethanol, time 0): 131.33 nmoI/L | Average Serum Levels-25-Hydroxy-Vitamin D3 ([2]; Treatment 5: 120 mg 25-OH D3 in 1 ml ethanol, 6 Hours): 191.67 nmoI/L | Average Serum Levels-25-Hydroxy-Vitamin D3 ([2]; Treatment 5: 120 mg 25-OH D3 in 1 ml ethanol, time 0): 122.33 nmoI/L | serum level change for each milligram administered ([3]; Buccal administration (Treatment 3, 120 mg in 1 ml ethanol)): about 0.63 nmol/L for each milligram administered | serum level change for each milligram administered ([3]; Nasal administration (Treatment 2, 120 mg in 1 ml ethanol)): about 0.57 nmol/L for each milligram administered | Average Serum Levels-25-Hydroxy-Vitamin D3 ([3]; Treatment 2: 120 mg 25-OH D3 in 1 ml ethanol, intranasal, 6 Hours): 191.67 nmol/L | Average Serum Levels-25-Hydroxy-Vitamin D3 ([3]; Treatment 2: 120 mg 25-OH D3 in 1 ml ethanol, intranasal, time 0): 122.33 nmol/L | effectiveness of buccal administration compared with nasal administration ([3]; Treatment 3, buccal, in ethanol, versus Treatment 2, nasal, 0 to 6 hours (FIG. 6, curves 610 and 620)): comparatively as effective as nasal administration | Average Serum Levels-25-Hydroxy-Vitamin D3 ([3]; Treatment 3: 120 mg 25-OH D3 in 1 ml ethanol, buccal, 6 Hours): 158.00 nmol/L | Average Serum Levels-25-Hydroxy-Vitamin D3 ([3]; Treatment 3: 120 mg 25-OH D3 in 1 ml ethanol, buccal, time 0): 82.00 nmol/L | Average Serum Levels-25-Hydroxy-Vitamin D3 [4, 5]: 226 nmol/L | Multiple change from time 0 of serum 25-Hydroxy-Vitamin D3 [4, 5]: 3.0 | Average Serum Levels-25-Hydroxy-Vitamin D3 [4, 6]: 354 nmol/L | Multiple change from time 0 of serum 25-Hydroxy-Vitamin D3 [4, 6]: 4.7 | Average Serum Levels-25-Hydroxy-Vitamin D3 [4, 7]: 75 nmol/L | Multiple change from time 0 of serum 25-Hydroxy-Vitamin D3 [4, 7]: 0 | course of serum level of 25-Hydroxy-Vitamin D3 ([4]; Treatment 2: 125 mg in ethanol, nasal delivery (FIG. 2, curve 210)): increases throughout the time period from 0 hours to 24 hours post administration | fold increase in the 25-Hydroxy-Vitamin D3 serum level [4, 8]: more than a three fold increases | percent increase in the 25-Hydroxy-Vitamin D3 serum level [4, 8]: ~200% | fold increase in the 25-Hydroxy-Vitamin D3 serum level [4, 9]: greater than 4.7 fold | percent increase in the 25-Hydroxy-Vitamin D3 serum level [4, 9]: ~375% | Average Serum Levels-25-Hydroxy-Vitamin D3 [4, 10]: 104 nmol/L | Multiple change from time 0 of serum 25-Hydroxy-Vitamin D3 [4, 10]: 1.2 | Average Serum Levels-25-Hydroxy-Vitamin D3 [4, 11]: 156 nmol/L | Multiple change from time 0 of serum 25-Hydroxy-Vitamin D3 [4, 11]: 1.9 | Average Serum Levels-25-Hydroxy-Vitamin D3 [4, 12]: 83 nmol/L | Multiple change from time 0 of serum 25-Hydroxy-Vitamin D3 [4, 12]: 0 | course of serum level of 25-Hydroxy-Vitamin D3 ([4]; Treatment 3: 125 mg powder, nasal delivery (FIG. 2, curve 220)): increases throughout the time period from 0 hours to 24 hours post administration | Average Serum Levels-25-Hydroxy-Vitamin D3 [4, 13]: 95 nmol/L | Multiple change from time 0 of serum 25-Hydroxy-Vitamin D3 [4, 13]: 1.0 | Average Serum Levels-25-Hydroxy-Vitamin D3 [4, 14]: 179 nmol/L | Multiple change from time 0 of serum 25-Hydroxy-Vitamin D3 [4, 14]: 1.9 | Average Serum Levels-25-Hydroxy-Vitamin D3 [4, 15]: 94 nmol/L | Multiple change from time 0 of serum 25-Hydroxy-Vitamin D3 [4, 15]: 0 | course of serum level of 25-Hydroxy-Vitamin D3 ([4]; Treatment 4: 125 mg in corn oil, nasal delivery (FIG. 2, curve 230)): increases throughout the time period from 6 hours to 24 hours post administration | Average Serum Levels-25-Hydroxy-Vitamin D3 [4, 16]: 81 nmol/L | Multiple change from time 0 of serum 25-Hydroxy-Vitamin D3 [4, 16]: 1.1 | Average Serum Levels-25-Hydroxy-Vitamin D3 [4, 17]: 96 nmol/L | Multiple change from time 0 of serum 25-Hydroxy-Vitamin D3 [4, 17]: 1.3 | Average Serum Levels-25-Hydroxy-Vitamin D3 [4, 18]: 74 nmol/L | Multiple change from time 0 of serum 25-Hydroxy-Vitamin D3 [4, 18]: 0
